Experimental data: patent US20250263390A1, “NOVEL SUBSTITUTED 6,7-DIHYDRO-5H-BENZO[7]ANNULENE COMPOUNDS AND THEIR DERIVATIVES, PROCESSES FOR THEIR PREPARATION AND THERAPEUTIC USES THEREOF” (SANOFI, priority 2022, published 2025)

Target: T1, ERα (Homo sapiens, UniProt P03372)
T1 construct: host or cells: MCF7
T1 sequence (P03372 1-595): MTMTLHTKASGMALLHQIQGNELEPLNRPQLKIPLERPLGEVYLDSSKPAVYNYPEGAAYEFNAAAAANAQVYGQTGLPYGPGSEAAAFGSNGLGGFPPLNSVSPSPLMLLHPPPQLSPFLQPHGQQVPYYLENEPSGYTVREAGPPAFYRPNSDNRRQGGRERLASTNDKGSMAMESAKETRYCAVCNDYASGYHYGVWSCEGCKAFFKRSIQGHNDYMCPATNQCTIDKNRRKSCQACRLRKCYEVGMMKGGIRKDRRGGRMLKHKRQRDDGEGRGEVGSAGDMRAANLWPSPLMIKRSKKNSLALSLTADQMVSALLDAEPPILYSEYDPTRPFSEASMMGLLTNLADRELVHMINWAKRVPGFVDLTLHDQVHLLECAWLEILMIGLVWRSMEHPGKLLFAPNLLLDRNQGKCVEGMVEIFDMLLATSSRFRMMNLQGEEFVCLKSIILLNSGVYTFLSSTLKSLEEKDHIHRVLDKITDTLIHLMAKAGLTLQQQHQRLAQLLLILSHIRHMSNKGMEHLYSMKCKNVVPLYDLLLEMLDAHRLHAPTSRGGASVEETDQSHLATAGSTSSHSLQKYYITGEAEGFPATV
Test: Estrogen receptor degradation activity: breast cancer cell ERα in cell western assay
Type: cell-based
Conditions: MCF7 cells, 4 hours, relative to fulvestrant 0.1 μM positive control
Protocol: Test: Estrogen Receptor Degradation Activity Said test involves measuring the in vitro degradation activity of the compounds of the Table 1a. The measurements of the degradation activities were made using a breast cancer cell ERα in cell western assay as described hereunder. MCF7 cells (ATCC) were seeded in 384 wells microplate (collagen coated) at a concentration of 10000 cells/30 μL per well in red phenol free MEM alpha medium (invitrogen) containing 5% charcoal dextran striped FBS. The following day, 9 points serial 1:5 dilution of each compound was added to the cells in 2.5p L at final concentrations ranging from 0.3-0.0000018 μM (in table 2), or 0.1 μM for fulvestrant (using as positive control). At 4 hours post compound addition the cells were fixed by adding 25 μL of formalin (final concentration 5% formalin containing 0.1% triton) for 10 minutes at room temperature and then washed twice with PBS. Then, 50 μL of LI-COR blocking buffer containing 0.1% Triton was added to plate for 30 minutes at room temperature. LI-COR blocking buffer was removed and cells were incubated overnight at cold room with 50 μL anti-ER rabbit monoclonal antibody (Thermo scientific MA1-39540) diluted at 1:1000 in LI-COR blocking buffer containing 0.1% tween-20. Wells which were treated with blocking buffer but no antibody were used as background control. Wells were washed twice with PBS (0.1% tween-20) and incubated at 37° C. for 60 minutes in LI-COR (0.1% tween-20) containing goat anti-rabbit antibody Alexa 488 (1:1000) and Syto-64 a DNA dye (2 μM final concentration). Cells were then washed 3 times in PBS and scanned in ACUMEN explorer (TTP-Labtech). Integrated intensities in the green fluorescence and red fluorescence were measured to determine the levels of ERα and DNA respectively. The degradation activity with respect to estrogen receptors in this test is given by the concentration which degrades 50% of the estrogen receptor (or IC50) in nM. The % of ERα levels decrease were determined as follows: % inhibition=100*(1−(sample−fulvestrant: DMSO−fulvestrant)).

| SMILES | % Degradation At 0.3 μM |
| --- | --- |
| O=C(O)C(F)(F)F.O=C(O)c1ccc2c(c1)CCCC(CCCO)=C2c1ccc(CC2CN(CCCF)C2)cc1 [Compound 15, 9-(4-((1-(3-fluoropropyl)azetidin-3-yl)methyl)phenyl)-8-(3-hydroxypropyl)-6,7-dihydro-5H-benzo[7]annulene-3-carboxylic acid, 2,2,2-trifluoroacetic acid] | 100% |
| O=C(O)c1ccc2c(c1)CCCC(c1cccc3c1CCCO3)=C2c1ccc(CC2CN(CCCF)C2)cc1 [Compound 12, 8-(chroman-5-yl)-9-(4-((1-(3-fluoropropyl)azetidin-3-yl)methyl)phenyl)-6,7-dihydro-5H-benzo[7]annulene-3-carboxylic acid] | 86% |
| Cc1c(OC(F)(F)F)cccc1C1=C(c2ccc(CC3CN(CCCF)C3)cc2)c2ccc(C(=O)O)cc2CCC1 [Compound 6, 9-(4-((1-(3-fluoropropyl)azetidin-3-yl)methyl)phenyl)-8-(2-methyl-3-(trifluoromethoxy)phenyl)-6,7-dihydro-5H-benzo[7]annulene-3-carboxylic acid] | 90% |
| Cc1cccc(C2=C(c3ccc(CC4CN(CCCF)C4)cc3)c3ccc(C(=O)O)cc3CCC2)c1C(F)F.Cl [Compound 54, 8-(2-(difluoromethyl)-3-methylphenyl)-9-(4-((1-(3-fluoropropyl)azetidin-3-yl)methyl)phenyl)-6,7-dihydro-5H-benzo[7]annulene-3-carboxylic acid, hydrochloride] | 90% |
| O=C(O)c1ccc2c(c1)CCCC(c1c(F)cccc1OC(F)(F)F)=C2c1ccc(CC2CN(CCCF)C2)cc1 [Compound 43, 8-(2-fluoro-6-(trifluoromethoxy)phenyl)-9-(4-((1-(3-fluoropropyl)azetidin-3-yl)methyl)phenyl)-6,7-dihydro-5H-benzo[7]annulene-3-carboxylic acid] | 92% |
| O=C(O)c1ccc2c(c1)CCCC(c1ccc(OC(F)(F)F)cc1)=C2c1ccc(CC2CN(CCCF)C2)cc1 [Compound 27, 9-(4-((1-(3-fluoropropyl)azetidin-3-yl)methyl)phenyl)-8-(4-(trifluoromethoxy)phenyl)-6,7-dihydro-5H-benzo[7]annulene-3-carboxylic acid] | 93% |
| Cc1cccc(C(F)(F)F)c1C1=C(c2ccc(CC3CN(CCCF)C3)cc2)c2ccc(C(=O)O)cc2CCC1 [Compound 33, 9-(4-((1-(3-fluoropropyl)azetidin-3-yl)methyl)phenyl)-8-(2-methyl-6-(trifluoromethyl)phenyl)-6,7-dihydro-5H-benzo[7]annulene-3-carboxylic acid] | 91% |
| O=C(O)c1ccc2c(c1)CCCC(C1CC(CO)C1)=C2c1ccc(CC2CN(CCCF)C2)cc1 (stereo not drawn) [Compound 21, 9-(4-((1-(3-fluoropropyl)azetidin-3-yl)methyl)phenyl)-8-(3-(hydroxymethyl)cyclobutyl)-6,7-dihydro-5H-benzo[7]annulene-3-carboxylic acid] | 100% |
| O=C(O)c1ccc2c(c1)CCCC(c1cccc(Cl)c1OC(F)(F)F)=C2c1ccc(CC2CN(CCCF)C2)cc1 [Compound 5, 8-(3-chloro-2-(trifluoromethoxy)phenyl)-9-(4-((1-(3-fluoropropyl)azetidin-3-yl)methyl)phenyl)-6,7-dihydro-5H-benzo[7]annulene-3-carboxylic acid] | 87% |
| COc1cccc(C2=C(c3ccc(CC4CN(CCCF)C4)cc3)c3ccc(C(=O)O)cc3CCC2)c1OC [Compound 46, 8-(2,3-dimethoxyphenyl)-9-(4-((1-(3-fluoropropyl)azetidin-3-yl)methyl)phenyl)-6,7-dihydro-5H-benzo[7]annulene-3-carboxylic acid] | 93% |
| O=C(O)c1ccc2c(c1)CCCC(c1cccc3c1CCCC3)=C2c1ccc(CC2CN(CCCF)C2)cc1 [Compound 2, 9-(4-((1-(3-fluoropropyl)azetidin-3-yl)methyl)phenyl)-8-(5,6,7,8-tetrahydronaphthalen-1-yl)-6,7-dihydro-5H-benzo[7]annulene-3-carboxylic acid] | 86% |
| COc1cccc(Cl)c1C1=C(c2ccc(CC3CN(CCCF)C3)cc2)c2ccc(C(=O)O)cc2CCC1 [Compound 44, 8-(2-chloro-6-methoxyphenyl)-9-(4-((1-(3-fluoropropyl)azetidin-3-yl)methyl)phenyl)-6,7-dihydro-5H-benzo[7]annulene-3-carboxylic acid] | 92% |
| COc1ccc(C2=C(c3ccc(CC4CN(CCCF)C4)cc3)c3ccc(C(=O)O)cc3CCC2)c(C(F)(F)F)c1.Cl [Compound 25, 9-(4-((1-(3-fluoropropyl)azetidin-3-yl)methyl)phenyl)-8-(4-methoxy-2-(trifluoromethyl)phenyl)-6,7-dihydro-5H-benzo[7]annulene-3-carboxylic acid, hydrochloride] | 92% |
| O=C(O)c1ccc2c(c1)CCCC(c1ccc(C(F)(F)F)cc1C(F)(F)F)=C2c1ccc(CC2CN(CCCF)C2)cc1 [Compound 39, 8-(2,4-bis(trifluoromethyl)phenyl)-9-(4-((1-(3-fluoropropyl)azetidin-3-yl)methyl)phenyl)-6,7-dihydro-5H-benzo[7]annulene-3-carboxylic acid] | 95% |

Results, then the compound that gave them:

| % Degradation At 0.3 μM | SMILES |
| --- | --- |
| 90% | COc1cccc(C(F)(F)F)c1C1=C(c2ccc(CC3CN(CCCF)C3)cc2)c2ccc(C(=O)O)cc2CCC1 [Compound 63, 9-(4-((1-(3-fluoropropyl)azetidin-3-yl)methyl)phenyl)-8-(2-methoxy-6-(trifluoromethyl)phenyl)-6,7-dihydro-5H-benzo[7]annulene-3-carboxylic acid] |
| 95% | COc1ccc(C(F)F)c(C2=C(c3ccc(CC4CN(CCCF)C4)cc3)c3ccc(C(=O)O)cc3CCC2)c1.Cl [Compound 60, 8-(2-(difluoromethyl)-5-methoxyphenyl)-9-(4-((1-(3-fluoropropyl)azetidin-3-yl)methyl)phenyl)-6,7-dihydro-5H-benzo[7]annulene-3-carboxylic acid, hydrochloride] |
| 100% | COc1c(F)ccc(C)c1C1=C(c2ccc(CC3CN(CCCF)C3)cc2)c2ccc(C(=O)O)cc2CCC1 [Compound 65, 8-(3-fluoro-2-methoxy-6-methylphenyl)-9-(4-((1-(3-fluoropropyl)azetidin-3-yl)methyl)phenyl)-6,7-dihydro-5H-benzo[7]annulene-3-carboxylic acid] |
| 84% | Cc1ccc(F)c(C)c1C1=C(c2ccc(CC3CN(CCCF)C3)cc2)c2ccc(C(=O)O)cc2CCC1 [Compound 73, 8-(3-fluoro-2,6-dimethylphenyl)-9-(4-((1-(3-fluoropropyl)azetidin-3-yl)methyl)phenyl)-6,7-dihydro-5H-benzo[7]annulene-3-carboxylic acid] |
| 95% | CC(F)(F)c1cc(F)ccc1C1=C(c2ccc(CC3CN(CCCF)C3)cc2)c2ccc(C(=O)O)cc2CCC1 [Compound 62, 8-(2-(1,1-difluoroethyl)-4-fluorophenyl)-9-(4-((1-(3-fluoropropyl)azetidin-3-yl)methyl)phenyl)-6,7-dihydro-5H-benzo[7]annulene-3-carboxylic acid] |
| 93% | CCc1c(C2=C(c3ccc(CC4CN(CCCF)C4)cc3)c3ccc(C(=O)O)cc3CCC2)cccc1C(F)(F)F [Compound 67, 8-(2-ethyl-3-(trifluoromethyl)phenyl)-9-(4-((1-(3-fluoropropyl)azetidin-3-yl)methyl)phenyl)-6,7-dihydro-5H-benzo[7]annulene-3-carboxylic acid] |
| 95% | Cc1ccc(C2=C(c3ccc(CC4CN(CCCF)C4)cc3)c3ccc(C(=O)O)cc3CCC2)cc1O [Compound 56, 9-(4-((1-(3-fluoropropyl)azetidin-3-yl)methyl)phenyl)-8-(3-hydroxy-4-methylphenyl)-6,7-dihydro-5H-benzo[7]annulene-3-carboxylic acid] |
